Assay results from publication PMC8838415, “Discovery of Novel Pleuromutilin Derivatives as Potent Antibacterial Agents for the Treatment of MRSA Infection” (Molecules, 2022).
Values after ≈ are worked out from the molar mass of the structure shown.

Tests used:
[1] = test system: methicillin-resistant S. aureus (ATCC 43300); assay: MIC and MBC, broth dilution, MRSA ATCC 43300; format: cell-based; settings: Staphylococcus aureus
Protocol: (§1) The synthesized pleuromutilin derivatives 8–30 were tested against four Gram-positive bacteria (MRSA ATCC 43300, S. aureus ATCC 29213 and two clinical strains of S. aureus (AD3 and 144) isolated from Guangdong Province). Tiamulin was used as the positive control in this experiment.
(§2) MIC values were tested following our previous work. The derivatives were dissolved in an aqueous solution of 2.5% tween-80 and 2.5% DMSO to make a solution with a concentration of 1000 µg/mL. The solution was diluted 12 times with MH broth to give a concentration range of 32–0.01 µg/mL. The bacteria (5 × 10^5 CFU/mL) were added in each well. For each compound concentration, three parallel experiments were set. The 96-well plate was incubated for 22–26 h at 37 °C. The MIC value was recorded as the minimal concentration that inhibits the visible growth of tested bacteria completely.
(§3) The MBC of these pleuromutilin derivatives were tested according to a previously reference. […] Then, the values of MBC were determined by laying 100 μL aliquots from the wells onto the MH agar plates without visible growth. The MH agar plate was cultured for a further 22–26 h at 37 °C.

S. aureus (144) = assay: MIC and MBC, broth dilution, S. aureus 144; format: cell-based; settings: Staphylococcus aureus; S. aureus 144 (clinical strain)
Protocol: as §1, §2, §3

50S ribosome = assay: SPR interaction and affinity analysis; format: binding, S. aureus ATCC 43300; settings: 4 °C; for Avg ka / Avg kd: 1:1 Langmuir binding; for Kd: KD = Kd/Ka
Protocol: S. aureus ATCC 43300 was used to prepare the 50S ribosomal subunit the same way as described previously. Cells were grown overnight in Brain Heart Infusion broth at 37 °C and harvested for 1.5 h at an OD600. Cells were washed with 10 mM Tris-HCl twice at pH = 7.5, and resuspended in 5 mL buffer A (20 mM HEPES-HCl pH = 7.5, 21 mM Mg(OAc)2, 100 mM NH4Cl, 1 mM DTT, 1 mM EDTA). Cells were broken by an ultrasound crusher. The lysate was centrifuged for 90 min at 20,000× g to clear cell debris.
The solution was layered on a sucrose cushion of 15 mL (10 mM Hepes-KOH pH 7.5, 25 mM Mg(OAc)2, 500 mM KCl, […], 1 mM DTT, 0.5 mM EDTA). Centrifugation was carried out for 15 h at 45,000 rpm using an ultracentrifuge Beckman (Beckman Coulter, Shanghai, China), Type 70Ti rotor. The crude ribosome pellet was resuspended in buffer E (10 mM Hepes-KOH pH 7.5, 10 mM Mg(OAc)2, 100 mM KCl, 1 mM DTT, 0.5 mM EDTA), then layered on 9 mL of 7–30% sucrose gradient and centrifuged in an ultracentrifuge Beckman, type SW40Ti rotor at 17,100 rpm for 15 h. The gradient was analyzed on the AKTA explorer system (Amersham, UK). The fractions corresponding to the 50S ribosomal subunit were collected and further subjected to precipitation by PEG 20,000. The 50S ribosomal subunit pellet was gently dissolved in 200 µL of storage buffer (10 mM HEPES-HCl pH = 7.5, 10 mM Mg(OAc)2, 15 mM KCl, 60 mM NH4Cl, 1 mM DTT) and stored at −80 °C.
SPR affinity analysis was performed on the bScreen LB 991 Label-free Microarray System (Berthold Technologies, Black Forest, Germany) at 4 °C and Biodot AD-1520 Array Printer (BIODOT Inc., Irvine, CA, USA) with a Photo-cross-linker SensorCHIP™. Concentrations of each compound were diluted to 100 μM with DMSO as the printing working solution for immobilization. A Biodot AD-1520 Array Printer (BIODOT Inc., CA, USA) was used to control the photo-cross-linker sensor chip and print samples. Each sample was printed four times. In order to check the chip quality and check whether the detection system works, DMSO was used as a system-negative control and rapamycin as a positive control. All positive control dots were divided into four groups and printed on the four corners of the sensor chip. The sensor chip was dried in vacuum after the array print and quickly transferred to a spectra radiator for a photo cross-linking reaction. The sensor chip was washed with C2H5OH, DMF and H2O in turn and evaporated in a N2 atmosphere for 15 min. Then, the Flowcell Cover were assembled.
The 50S ribosome was diluted separately to 200 nM, 400 nM, 800 nM, 1600 nM and 3200 nM with PBST (pH = 7.4, 0.1% Tween 20). Different concentrations of ribosome solutions were injected at a flow rate of 0.5 μL⋅s^−1 for 600 s at the associating stage at 4 °C, followed by PBST at a flow rate of 0.5⋅μL·s^−1 for 360 s at each dissociating stage. Then, the surface was regenerated with Glycine-HCl (pH = 2.0) at a flow rate of 2⋅μL·s^−1 for 300 s.
The raw data of the binding process of compounds and the 50S ribosome were recorded in real time. We compared the response unit (RU) of surface resonance to determine the different binding affinity between each sample dot. The process and analysis of association rate constants (Ka) and dissociation rate constants (Kd) and the equilibrium dissociation constant (KD, Kd/Ka) were performed using the data analysis software of the bScreen LB 991 Label-free Microarray System according to a single-site binding model (1:1 Langmuir binding) with mass transfer limitations for binding kinetics determination.

S. aureus (AD3) = assay: MIC and MBC, broth dilution, S. aureus AD3; format: cell-based; settings: Staphylococcus aureus; S. aureus AD3 (clinical strain)
Protocol: as §1, §2, §3

S. aureus (ATCC 29213) = assay: MIC and MBC, broth dilution, S. aureus ATCC 29213; format: cell-based; settings: Staphylococcus aureus, ATCC29213
Protocol: as §1, §2, §3

Compound | MBC [1] [µg/mL] | MIC [1] [µg/mL] | melting point [°C] | MBC (S. aureus (144)) [µg/mL] | MIC (S. aureus (144)) [µg/mL] | Avg ka (50S ribosome) [M⁻¹ s⁻¹] | Avg kd (50S ribosome) [s⁻¹] | MBC (S. aureus (AD3)) [µg/mL] | MIC (S. aureus (AD3)) [µg/mL] | MBC (S. aureus (ATCC 29213)) [µg/mL] | MIC (S. aureus (ATCC 29213)) [µg/mL] | Kd (50S ribosome) [µM]
C=C[C@]1(C)C[C@@H](OC(=O)CNCCSC)[C@]2(C)[C@H](C)CC[C@]3(CCC(=O)[C@H]32)[C@@H](C)[C@@H]1O [Compound 26, 22-(2-(Methylthio)ethylamineyl)-22-deoxypleuromutilin] | 1 (≈ 2.21 µM) | 1 (≈ 2.21 µM) | 153 to 155 | 4 (≈ 8.86 µM) | 2 (≈ 4.43 µM) | 1.26 | 0.779 | 4 (≈ 8.86 µM) | 1 (≈ 2.21 µM) | 2 (≈ 4.43 µM) | 2 (≈ 4.43 µM) | –
C=C[C@]1(C)C[C@@H](OC(=O)CNCc2ccc(F)cc2)[C@]2(C)[C@H](C)CC[C@]3(CCC(=O)[C@H]32)[C@@H](C)[C@@H]1O [Compound 16, 22-(4-Fluorobenzylamineyl)-22-deoxypleuromutilin] | 8 (≈ 16.5 µM) | 4 (≈ 8.24 µM) | 76 to 77 | 32 (≈ 65.9 µM) | 16 (≈ 32.9 µM) | 2.04 | 0.00929 | 16 (≈ 32.9 µM) | 8 (≈ 16.5 µM) | 32 (≈ 65.9 µM) | 16 (≈ 32.9 µM) | 4560
C=C[C@]1(C)C[C@@H](OC(=O)CNCc2cccc(F)c2)[C@]2(C)[C@H](C)CC[C@]3(CCC(=O)[C@H]32)[C@@H](C)[C@@H]1O [Compound 15, 22-(3-Fluorobenzylamineyl)-22-deoxypleuromutilin] | 2 (≈ 4.12 µM) | 1 (≈ 2.06 µM) | 143 to 144 | 16 (≈ 32.9 µM) | 8 (≈ 16.5 µM) | 1960 | 0.00432 | 8 (≈ 16.5 µM) | 2 (≈ 4.12 µM) | 8 (≈ 16.5 µM) | 4 (≈ 8.24 µM) | 2.21
C=C[C@]1(C)C[C@@H](OC(=O)CNCCCC)[C@]2(C)[C@H](C)CC[C@]3(CCC(=O)[C@H]32)[C@@H](C)[C@@H]1O [Compound 21, 22-Butylamineyl-22-deoxypleuromutilin] | 4 (≈ 9.22 µM) | 2 (≈ 4.61 µM) | 74 to 75 | 8 (≈ 18.4 µM) | 8 (≈ 18.4 µM) | 4.24 | 0.0231 | 8 (≈ 18.4 µM) | 4 (≈ 9.22 µM) | 4 (≈ 9.22 µM) | 4 (≈ 9.22 µM) | 5440
C=C[C@]1(C)C[C@@H](OC(=O)CNCCS(C)(=O)=O)[C@]2(C)[C@H](C)CC[C@]3(CCC(=O)[C@H]32)[C@@H](C)[C@@H]1O [Compound 25, 22-(2-(Methylsulfonyl)ethylamineyl)-22-deoxypleuromutilin] | 2 (≈ 4.14 µM) | 1 (≈ 2.07 µM) | 183 to 186 | 8 (≈ 16.5 µM) | 4 (≈ 8.27 µM) | 2.70 | 0.00833 | 4 (≈ 8.27 µM) | 2 (≈ 4.14 µM) | 2 (≈ 4.14 µM) | 2 (≈ 4.14 µM) | 3080
C=C[C@]1(C)C[C@@H](OC(=O)CNCCCc2ccccc2)[C@]2(C)[C@H](C)CC[C@]3(CCC(=O)[C@H]32)[C@@H](C)[C@@H]1O [Compound 19, 22-(3-Phenylpropylamineyl)-22-deoxypleuromutilin] | 2 (≈ 4.03 µM) | 1 (≈ 2.02 µM) | 83 to 84 | 8 (≈ 16.1 µM) | 4 (≈ 8.07 µM) | 3110 | 0.000469 | 4 (≈ 8.07 µM) | 1 (≈ 2.02 µM) | 4 (≈ 8.07 µM) | 2 (≈ 4.03 µM) | 0.151
C=C[C@]1(C)C[C@@H](OC(=O)CNCCc2cccs2)[C@]2(C)[C@H](C)CC[C@]3(CCC(=O)[C@H]32)[C@@H](C)[C@@H]1O [Compound 20, 22-(Thiophene-2-ethylamineyl)-22-deoxypleuromutilin] | 1 (≈ 2.05 µM) | 0.5 (≈ 1.03 µM) | 69 to 70 | 4 (≈ 8.2 µM) | 2 (≈ 4.1 µM) | 624 | 0.0197 | 16 (≈ 32.8 µM) | 4 (≈ 8.2 µM) | 2 (≈ 4.1 µM) | 2 (≈ 4.1 µM) | 31.6
C=C[C@]1(C)C[C@@H](OC(=O)CNCCc2ccccc2)[C@]2(C)[C@H](C)CC[C@]3(CCC(=O)[C@H]32)[C@@H](C)[C@@H]1O [Compound 17, 22-(2-PhenylethylaMineyl)-22-deoxypleuromutilin] | 1 (≈ 2.08 µM) | 1 (≈ 2.08 µM) | 73 to 75 | 4 (≈ 8.3 µM) | 4 (≈ 8.3 µM) | 2.05 | 0.00963 | 8 (≈ 16.6 µM) | 2 (≈ 4.15 µM) | 8 (≈ 16.6 µM) | 2 (≈ 4.15 µM) | 4690
C=C[C@]1(C)C[C@@H](OC(=O)CNc2cccc(Br)c2)[C@]2(C)[C@H](C)CC[C@]3(CCC(=O)[C@H]32)[C@@H](C)[C@@H]1O [Compound 12, 22-(3-Bromoanilineyl)-22-deoxypleuromutilin] | 0.25 (≈ 0.469 µM) | 0.12 (≈ 0.225 µM) | 161 to 163 | 2 (≈ 3.76 µM) | 1 (≈ 1.88 µM) | – | 6.25e-05 | 1 (≈ 1.88 µM) | 0.25 (≈ 0.469 µM) | 0.5 (≈ 0.939 µM) | 0.25 (≈ 0.469 µM) | 1.53
C=C[C@]1(C)C[C@@H](OC(=O)CNc2ccc(Cl)cc2)[C@]2(C)[C@H](C)CC[C@]3(CCC(=O)[C@H]32)[C@@H](C)[C@@H]1O [Compound 11, 22-(4-Chloroanilineyl)-22-deoxypleuromutilin] | 0.25 (≈ 0.512 µM) | 0.12 (≈ 0.246 µM) | 94 to 95 | 2 (≈ 4.1 µM) | 1 (≈ 2.05 µM) | – | 0.0019 | 1 (≈ 2.05 µM) | 0.25 (≈ 0.512 µM) | 1 (≈ 2.05 µM) | 0.5 (≈ 1.02 µM) | 51.8
penicillin [reference compound] | – | – | – | – | – | 2.10 | 0.515 | – | – | – | – | –
C=C[C@]1(C)C[C@@H](OC(=O)CNc2cccc(F)c2)[C@]2(C)[C@H](C)CC[C@]3(CCC(=O)[C@H]32)[C@@H](C)[C@@H]1O [Compound 8] | 0.12 (≈ 0.254 µM) | 0.03 (≈ 0.0636 µM) | – | 0.5 (≈ 1.06 µM) | 0.25 (≈ 0.53 µM) | – | – | 0.5 (≈ 1.06 µM) | 0.12 (≈ 0.254 µM) | 0.25 (≈ 0.53 µM) | 0.12 (≈ 0.254 µM) | –
